Measurements taken from ChEMBL document CHEMBL1201862, “PubChem BioAssay data set” (2004).
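Five concentrations, 48 hours, 96-well plates. GI50: concentration for 50% inhibition of growth.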 Activity calls are given as the source filed them. Cut-off read from the data, not from the text of the source: active = GI50 up to about 1.1 µM and inactive = higher.

Tests used:
Experiment in all cases: inhibition of tumour cell growth, NCI panel, 48 h
CCRF-CEM = tested on: CCRF-CEM
SN12C = tested on: SN12C
U-251 = tested on: U-251
PC-3 = tested on: PC-3
HCT-15 = tested on: HCT-15
NCI-H522 = tested on: NCI-H522
OVCAR-8 = tested on: OVCAR-8
RXF 393 = tested on: RXF 393
SF-539 = tested on: SF-539
A549 = tested on: A549
DU-145 = tested on: DU-145
ACHN = tested on: ACHN
KM12 = tested on: KM12
HT-29 = tested on: HT-29
SK-MEL-28 = tested on: SK-MEL-28
LOX IMVI = tested on: LOX IMVI
NCI-H460 = tested on: NCI-H460
UO-31 = tested on: UO-31
K562 = tested on: K562
A498 = tested on: A498
786-0 = tested on: 786-0
MDA-MB-435 = tested on: MDA-MB-435
NCI/ADR-RES = tested on: NCI/ADR-RES
Malme-3M = tested on: Malme-3M
BT-549 = tested on: BT-549
HCC 2998 = tested on: HCC 2998
EKVX = tested on: EKVX
SK-MEL-2 = tested on: SK-MEL-2
SF-295 = tested on: SF-295
OVCAR-4 = tested on: OVCAR-4
SW-620 = tested on: SW-620
SNB-75 = tested on: SNB-75
COLO 205 = tested on: COLO 205
OVCAR-3 = tested on: OVCAR-3
SK-OV-3 = tested on: SK-OV-3
SF-268 = tested on: SF-268
MDA-N = tested on: MDA-N
NCI-H226 = tested on: NCI-H226
RPMI-8226 = tested on: RPMI-8226
UACC-62 = tested on: UACC-62
IGROV-1 = tested on: IGROV-1
HCT-116 = tested on: HCT-116
HL-60 = tested on: HL-60
SK-MEL-5 = tested on: SK-MEL-5
M14 = tested on: M14
OVCAR-5 = tested on: OVCAR-5
MCF7 = tested on: MCF7
HOP-62 = tested on: HOP-62
UACC-257 = tested on: UACC-257
T47D = tested on: T47D
MOLT-4 = tested on: MOLT-4
TK-10 = tested on: TK-10
MDA-MB-231 = tested on: MDA-MB-231
Hs-578T = tested on: Hs-578T
NCI-H23 = tested on: NCI-H23

SMILES: O=C(O)c1nn[nH]c1Cl
- GI50 (CCRF-CEM): > 100 µM (inactive)
- GI50 (SN12C): > 100 µM (inactive)
- GI50 (U-251): > 100 µM (inactive)
- GI50 (PC-3): > 100 µM (inactive)
- GI50 (HCT-15): > 100 µM
- GI50 (NCI-H522): > 100 µM (inactive)
- GI50 (OVCAR-8): > 100 µM (inactive)
- GI50 (RXF 393): > 100 µM (inactive)
- GI50 (SF-539): > 100 µM (inactive)
- GI50 (A549): > 100 µM (inactive)
- GI50 (DU-145): > 100 µM (inactive)
- GI50 (ACHN): > 100 µM (inactive)
- GI50 (KM12): > 100 µM (inactive)
- GI50 (HT-29): > 100 µM (inactive)
- GI50 (SK-MEL-28): > 100 µM (inactive)
- GI50 (LOX IMVI): > 100 µM (inactive)
- GI50 (NCI-H460): > 100 µM (inactive)
- GI50 (UO-31): > 100 µM (inactive)
- GI50 (K562): > 100 µM (inactive)
- GI50 (A498): > 100 µM (inactive)
- GI50 (786-0): > 100 µM (inactive)
- GI50 (MDA-MB-435): > 100 µM (inactive)
- GI50 (NCI/ADR-RES): > 100 µM (inactive)
- GI50 (Malme-3M): > 100 µM (inactive)
- GI50 (BT-549): > 100 µM (inactive)
- GI50 (HCC 2998): > 100 µM (inactive)
- GI50 (EKVX): > 100 µM (inactive)
- GI50 (SK-MEL-2): > 100 µM (inactive)
- GI50 (SF-295): > 100 µM (inactive)
- GI50 (OVCAR-4): > 100 µM (inactive)
- GI50 (SW-620): > 100 µM (inactive)
- GI50 (SNB-75): > 100 µM (inactive)
- GI50 (COLO 205): > 100 µM (inactive)
- GI50 (OVCAR-3): > 100 µM (inactive)
- GI50 (SK-OV-3): > 100 µM (inactive)
- GI50 (SF-268): > 100 µM (inactive)
- GI50 (MDA-N): > 100 µM (inactive)
- GI50 (NCI-H226): > 100 µM (inactive)
- GI50 (RPMI-8226): > 100 µM (inactive)
- GI50 (UACC-62): > 100 µM (inactive)
- GI50 (IGROV-1): > 100 µM (inactive)
- GI50 (HCT-116): > 100 µM (inactive)
- GI50 (HL-60): > 100 µM (inactive)
- GI50 (SK-MEL-5): > 100 µM (inactive)
- GI50 (M14): > 100 µM (inactive)
- GI50 (OVCAR-5): > 100 µM (inactive)
- GI50 (MCF7): > 100 µM (inactive)
- GI50 (HOP-62): > 100 µM (inactive)
- GI50 (UACC-257): > 100 µM (inactive)
- GI50 (T47D): > 100 µM (inactive)
- GI50 (MOLT-4): > 10 µM (inactive)
- GI50 (TK-10): > 100 µM (inactive)
- GI50 (MDA-MB-231): > 100 µM (inactive)
- GI50 (Hs-578T): > 100 µM (inactive)
- GI50 (NCI-H23): > 100 µM (inactive)
